# Laboratory results: patent publication US20240366577A1, “CONTROLLED LONG-TERM DRUG DELIVERY AND METHODS THEREOF” (THE JOHNS HOPKINS UNIVERSITY, priority 2021, published 2024)
# Where two headings read alike, the source gives them in different places.
# Legend:
# [1] = tested on: foreign body and immune rejection responses to implanted biomedical devices; conditions: rodents; cited from earlier work
# [2] = tested on: foreign body and immune rejection responses to implanted biomedical devices; conditions: non-human primates; cited from earlier work
# [3] = in vitro release under accelerated release conditions; format: physicochemical; conditions: 37° C., PBS+0.3% SDS, 2.9 mg drug, 12-day time course; amorphous vs 50 μm vs 150-200 μm crystals
# Text: After crystals visibly stopped precipitating or growing, the vessel was submerged in an ultrasonic water bath for 10-30 seconds to dislodge crystals from the vessel sidewall and break them into more a uniform size distributions, either smaller fines, for example 50 μm, or between 150-200 μm, as measured by brightfield and scanning electron microscopy, shown in FIGS. 2A-2B. Resultant product was then removed from the supernatant mother solution, dried, weighed, and stored for later use. On average, yielded crystal was approximately 40% of the starting powder. Furthermore, methods exist to quantify solubilized material, typically using optics to identify changes in light transmittance, and enabled testing of crystal stability in a range of aqueous solutions. […] To simulate cumulative drug release over time, all 3 mL supernatant volumes were removed and replaced with completely fresh release media at desired times of 1 hr, 4 hr, 6 hr, 8 hr, 10 hr, 1 day, 2 days, 5 days, 7 days, 10 days and 12 days, and 200 μL aliquots were measured in individual wells of a 96-well plate at 266 nm to determine solubilize sorafenib release, as shown in FIG. 2D.
# Release studies were carried out under accelerated conditions in PBS with 0.3% w/v SDS in 1X PBS. […] Drug concentration in samples was measured using a UV-calibrated Tecan infinite M200 PRO. […]
# [4] = SD rats; cited from earlier work
# [5] = tested on: 4T1 tumors; assay: orthotopic parent 4T1 TNBC tumor growth; format: in vivo, BALB/c mice; conditions: daily IP bolus 25 mg/kg BW/day, dissolved in ~60% DMSO
# Protocol: Namely, 4T1 tumors were treated with either PBS (PBS CONTROL), intraperitoneal (IP) bolus sorafenib (25 mg/kg BW/day) (IP BOLUS), 3 mg IP injected sorafenib crystals (IP CRYSTAL 3 MG), or sorafenib crystals (3 mg: SC CRYSTAL (3 MG); 10 mg: SC CRYSTAL (10 MG)) injected around developed tumors in the subcutaneous (SC) mammary fatpad. Furthermore, to truly test the utility of crystalline sorafenib in treating such an aggressive TNBC model, treatment was carried out retrospectively and only started once tumor volumes reached ˜225-250 mm^3. A positive control liquid-dissolved and daily injected drug treatment group was included, where mice were dosed with a daily bolus of 25 mg sorafenib/kg of mouse BW. […] This may be supported by our prior observation that in the IP compartment, where there is higher 10 liquid turnover as compared to the SC space, crystalline drugs usually have a faster kinetic of release over time.
# 4T1 or 4T1-luc2 cells were trypsinized using 0.25% Trypsin-EDTA, then diluted with the appropriate complete culture media and spun in a centrifuge at 300 g for 5 min. The supernatant was aspirated, and the pellet was re-suspended in serum-free RPMI 1640. The solution was centrifuged again, and the supernatant aspirated. Re-suspension, centrifugation, and aspiration was repeated once more. 5 mL of RPMI-1640 was then added to the pellet. 10 μL of the cell suspension was removed and mixed with 10 μL of Trypan blue stain 0.4% (ThermoFisher). Cells were counted with a Countess automated cell counter. Cell solutions were centrifuged one more time, the supernatant aspirated, and the pellet resuspended in the amount of RPMI-1640 required to achieve a concentration of 5×10^5 cells/200 μL of media. Tumor cells were then administered orthotopically in naive (and anesthetized) BALB/c mice into the right inguinal mammary fat pad 21 with 200 μL aliquots of the cell suspension, using an insulin syringe. Tumors were measured externally using a digital caliper, and volume was calculated (!″* (length * height) *−length * height). Except in the 4T1-luc2 trial, treatment began once tumors reached an average volume of 220-250 mm3. Experimental end point was deemed when solid tumors reached a volume of no more than 2000 mm3. Tumors were extracted and harvested, half stored in 4% paraformaldehyde diluted from 32% (Cat#50980495, Electron Microscopy Services) with DI H2O, and half frozen in liquid nitrogen, then stored at −80° C.
# Once tumors had reached an average volume of ˜220-250 mm^3, mice were administered either subcutaneously or intraperitoneally with 3 or 10 mg of crystalline sorafenib, diameter ˜150-200 μm, suspended in 200 μL of sterile saline using an 18 g needle. […]
# [6] = tested on: macrophage Cd68 and myeloid Cd11b; assay: qPCR of retrieved tumors: immune markers; format: in vivo, BALB/c mice; conditions: daily IP bolus 25 mg/kg BW/day
# [7] = tested on: 4T1; conditions: 20-60 mg/kg dosing; cited from earlier work
# [8] = tested on: caspase-3/7; assay: Caspase-Glo 3/7 of tumor lysates; format: in vivo, BALB/c mice; conditions: daily bolus regimen; tumors at end of study
# Protocol: (§1) To confirm the effects seen at the level of RNA, immunofluorescent staining of excised tumor samples that were in parallel fixed with paraformaldehyde and embedded in paraffin was performed. […] Co-localization of CD31 with aSMact was, as expected, not linked in crystal sorafenib-treated tumors, where CD31 reduction was more extensive than with daily, bolus sorafenib.
# Caspase activity was determined using the Caspase-Glo 3/7 assay kit and the manufacturer's protocol, with the following modifications. Protein samples (prepared by sonication probe in NP40 lysis buffer (Cat#FNN0021, Thermo)+Halt protease inhibitor cocktail (Cat#78425, Thermo)) were prepared in a 96-well plate following BCA assay (Cat#23225, Pierce/Thermo) protein quantification ([…] in 50 μl) were incubated with 50 μl of reconstituted caspase 3/7 substrate. After a brief shaking, the plate was incubated at room temperature for 1 hr and luciferase activity was determined using a BioTek Synergy 2 plate reader (Biotek; Winooski, VT).
# [9] = tested on: alpha Smooth Muscle actin (aSMact); assay: immunofluorescent staining of tumors: aSMact; format: in vivo, BALB/c mice; conditions: daily bolus IP 25 mg/kg/day
# Protocol: as §1
# (§2) Immunofluorescence imaging was used to determine anti-angiogenic drug efficacy. Tumor tissues were retrieved from mice and fixed overnight using 4% paraformaldehyde at 4° C. After fixation, retrieved tissue samples were moved to 70% ethanol. Samples were then processed for paraffin embedding, sectioning and staining. […] Next, tissues were incubated for 1 hour in an immunostaining cocktail solution consisting of NucBlue (Thermo), specific marker probes (1:200 dilution) anti-CD31 (Cat#DIA-310, HistoBioTec) and anti-alphaSmoothMuscle actin-Cy3 (Sigma) in Dako staining buffer. For CD31, a goat anti-rat alexa-fluor647 secondary antibody was also used (1:400). After staining, samples were rinsed again with 1X PBS three times prior to slides being cover slipped with Pro-long anti-fade Gold (Thermo). […] For stain quantification, images were converted into 8-bit image files, a background threshold was determined using NIH ImageJ, and then all images were processed using an NIH ImageJ macro to quantify the area of positive stain. […]
# [10] = tested on: tumor endothelial CD31; assay: immunofluorescent staining of tumors: CD31; format: in vivo, BALB/c mice; conditions: daily bolus IP 25 mg/kg/day
# Protocol: as §1, §2
# [11] = tested on: MDA-MB-231; conditions: 30 mg/kg bodyweight daily oral, cited from earlier work
# [12] = body weight of treated tumor-bearing mice; format: in vivo, BALB/c mice; conditions: daily 25 mg/kg bolus in ~60% DMSO solvent solution
# Protocol: However, due to the highly hydrophobic nature of sorafenib, its daily 25 mg/kg bolus dosing regimen required regular used of a solvent solution made up of ˜60% of the strong organic solvent dimethylsulfoxide (DMSO). […] In stark contrast, no DMSO was required for delivery of sorafenib crystals, for which instead simply utilized ˜100-200 μl of saline to inject into the desired IP or SC tissue sites.
# Once tumors had reached an average volume of ˜220-250 mm^3, mice were administered either subcutaneously or intraperitoneally with 3 or 10 mg of crystalline sorafenib, diameter ˜150-200 μm, suspended in 200 μL of sterile saline using an 18 g needle. As a control, mice (n=4) were dosed with sorafenib dissolved at a concentration of 4 mg/mL in a solution of 65% DMSO (remainder DPBS). Mice were dosed either subcutaneously or intraperitoneally with a bolus of 25 mg drug per kg of bodyweight (BW), daily. As a secondary control, mice were dosed with the 65% DMSO/PBS vehicle to monitor changes in body score based on the vehicle alone.
smiles,measurement,setting,value
COc1ccc(COc2ccc(Cc3cnc(N)nc3N)cc2OC)cc1 [GW2580],duration of suppression of foreign body and immune rejection responses,[1],over 1.3 years
same,duration of suppression of foreign body and immune rejection responses,[2],≥ 6 months
"CNC(=O)c1cc(Oc2ccc(NC(=O)Nc3ccc(Cl)c(C(F)(F)F)c3)cc2)ccn1 [amorphous (powder) sorafenib, sorafenib]",release of solubilized sorafenib (cumulative),[3],fastest release
"CO[C@H]1C[C@@H]2CC[C@@H](C)[C@@](O)(O2)C(=O)C(=O)N2CCCC[C@H]2C(=O)O[C@H]([C@H](C)C[C@@H]2CC[C@@H](O)[C@H](OC)C2)CC(=O)[C@H](C)/C=C(\C)[C@@H](O)[C@@H](OC)C(=O)[C@H](C)C[C@H](C)/C=C/C=C/C=C/1C [crystalline rapamycin, rapamycin]",inflammatory activity / biocompatibility,[4],no inflammatory activity
CNC(=O)c1cc(Oc2ccc(NC(=O)Nc3ccc(Cl)c(C(F)(F)F)c3)cc2)ccn1 [sorafenib],tumor volumes,[5],slight dip in tumor volumes
same,Cd68 and Cd11b expression levels (qPCR),[6],no significant changes
same,effects on tumor growth,[7],negligible effects
same,recruitment/polarization of CD206+ F4/80+ M2 macrophages,[7],higher recruitment/polarization
same,apoptotic index (caspase-3/7 levels in tumor lysates),[8],significantly increased
same,tumor aSMact levels (immunofluorescence),[9],significant reduction
same,tumor endothelial CD31 levels (immunofluorescence),[10],significant reduction
same,tumor reduction,[11]; after 9 days,42%
same,angiogenic inhibition,[11],significant angiogenic inhibition
same,body weight loss,[12],15-20%
